In patent US20100069316A1, “TREATMENT FOR MULTIPLE MYELOMA” (Ares Trading S.A., priority 2006, published 2010):
Entries after “also recorded” stand apart in the source; their conditions may differ.

Columns and labels:
Assay type in all cases: cell-based, human
[1] = system: CD138+ primary myeloma cells; assay: Ex vivo survival of primary myeloma cells in bone marrow culture; conditions: bone marrow cells of 10 myeloma patients, 5 days, 1, 3.3, 10 μM
Method: Bone marrow cells from 10 patients with multiple myeloma (5 patients at diagnosis and 5 relapsing patients) were harvested and mononuclear cells isolated by ficoll hypaque centrifugation.
At day 5, cell numbers were counted and the percentage and counts of myeloma cells were determined by FACS staining using an anti-CD138 monoclonal antibody. This made it possible to assay for viable myeloma cells as CD138 is lost on pre-apoptotic myeloma cells (Jourdan, M. et al. (1998) Br. J. Haematol., 100, 637-648). The percentage and count of CD34 hematopoietic progenitors was also determined with an anti-CD34 monoclonal antibody and FACS labeling.
Bone marrow mononuclear cells from 5 patients with newly diagnosed multiple myeloma or from 5 patients with relapsing multiple myeloma were cultured for 5 days with culture medium and 10% fetal calf serum. […] At the end of culture, cells were counted. Viable myeloma cells were determined using FACS labeling with anti-CD138 monoclonal antibody, as well as viable hematopoietic stem cells using an anti-CD34 monoclonal antibody. Results are expressed as the percentage of viable myeloma cells, non-myeloma cells, or CD34 cells compared to the control culture group without inhibitor.

XG7 myeloma cell line = assay: Cell proliferation assay (tritiated thymidine incorporation), XG7; conditions: Homo sapiens, XG7, alone or with fixed Velcade/Melphalan
Method: (§1) Myeloma cells were harvested in the exponential growth phase (at day 3 after culture passage when the cell concentration is around 5×10^5 cells/ml). Cells were washed twice, cultured for 3 hours in RPMI1640 and 10% FCS, washed twice. This makes it possible to remove cell-bound growth factors (in particular recombinant IL-6). Then cells are plated in 96-well flat-bottomed microplates at various concentrations depending on their doubling time: • 5×10^3 cells/well in 100 μl for the cell lines: XG-1, XG-7 • 10^4 cells/well in […] for the cell lines: XG-2, XG-4, XG-6, XG-11, PRMI8226, L363 • 2×10^4 cells/well in 100 μl for the cell lines: XG-3, XG-12, XG-13, XG-14, XG-19, XG-20
(§2) The culture medium used were: • PRMI1640, 10% FCS and 0.5 ng/ml of IL-6 for XG-1, XG-2, XG-3, XG-4, XG-6, XG-7, XG-11, XG-12, XG-13, XG-19, XG-20 cells • X-VIVO20 and 0.5 ng/ml IL-6 for XG-14 cells • PRMI1640 and 10% FCS for RPMI8226 and L363 cells
(§3) The diluted compounds, DMSO or control culture medium were added in 100 μl at the start of the culture. Three culture wells were done for one compound dilution and the experiments were done twice (finally six culture wells for one compound dilution).
(§4) Cells were cultured for 4 days. Eight hours before the end of the culture, 0.5 μCi of tritiated thymidine were added in 50 μl of RPMI1640 and 10% FCS. Cells were then extracted with a cell collector and the thymidine incorporation was determined using a beta cell counter.
(§5) For each experiment, the mean tritiated thymidine incorporations (mean values determined on three culture wells) were plotted against the logarithmic concentrations of the compound. The curves were fitted with exponential regression, which was determined using the concentrations defining the inhibition response (usually 3-4 concentrations).
(§6) The concentrations yielding 50% and 90% inhibition of the proliferation of myeloma cells were determined with these regression curves.
(§7) The concentration yielding 10% (IC10) or 50% (IC50) inhibition of the myeloma cell lines were determined and the data are listed in Table 2.
(§8) Compound A was tested in combination with melphalan or Velcade. Increasing concentration of compound A (0, 0.01, 0.03, 0.12, 0.37, 1.1, 3.1, 10, 30 μM) were applied on 4 myeloma cell lines alone or in combination with Velcade or melphalan at concentration yielding around 10% or 50% inhibition.

XG-12 myeloma cell line [2] = assay: Cell numeration, XG-12; conditions: day 3 of culture
Method: (§9) Two myeloma cell lines (XG-3 and XG-12) that are sensitive to compound A (1-(4-{4-[4-(4-chlorophenyl)-pyrimidin-2-ylamino]-benzoyl}-piperazin-1-yl)-ethanone) were selected for the study. To assess the effect of compound A on myeloma cell survival, the percentage apoptotic cells was determined using binding of annexin V to apoptotic cells. The effect of compound A on the cell cycle was assessed by evaluating the percentage of cells in the S phase of the cell cycle by incorporation of BrdU-FITC. Apoptosis, cell cycle and cell numeration were evaluated daily on a four day culture period on the cell lines using the IC10, IC50 and I90 respective doses of compound A.

[3] = system: myeloma cell lines (XG-3 and XG-12); assay: Induction of apoptosis (annexin V) in myeloma cell lines; conditions: XG-3 and XG-12, IC10, IC50, IC90 doses, four day culture
Description: (§10) Apoptotic cells were detected using fluorescein isothiocyanate-labelled annexin V (FITC-annexin-V, Boehringer Mannheim). Annexin V has a high affinity for phosphatidylserine present on the outer cytoplasmic membrane of apoptotic cells. Cells were washed, labeled with FITC-annexin-V according to the manufacturer's recommendations and analyzed with a FACScan flow cytometer using Cell Quest software (Becton Dickinson, Moutain View, Calif., USA).
as §9

XG-12 myeloma cell line [4] = assay: Detection of apoptosis (FITC-annexin V), XG-12; conditions: day 3 of culture
Description: as §10, §9

XG-3 myeloma cell line = assay: Detection of apoptosis (FITC-annexin V), XG-3; conditions: day 3 of culture
Description: as §10, §9

XG3 myeloma cell line = assay: Cell proliferation assay (tritiated thymidine incorporation), XG3; conditions: Homo sapiens, XG3, alone or with fixed Velcade/Melphalan
Method: as §1, §2, §3, §4, §5, §6, §7, §8

[5] = concentration of compound A yielding 50% inhibition of proliferation, read-out: IC50
[6] = concentration of compound A yielding 90% inhibition of proliferation
[7] = XG-12, compound A at IC50 concentration
[8] = XG-12, compound A at IC90 concentration

IC50 (XG7 myeloma cell line; [5]): 6.36 µM | IC90 (XG7 myeloma cell line; [6]): 9.33 µM | IC50 (XG3 myeloma cell line; [5]): 1.49 µM | IC90 (XG3 myeloma cell line; [6]): 6.35 µM
Compound: CC(=O)N1CCN(C(=O)c2ccc(Nc3nccc(-c4ccc(Cl)cc4)n3)cc2)CC1 [Compound A, 1-(4-{4-[4-(4-Chloro-phenyl)-pyrimidin-2-ylamino]-benzoyl}-piperazin-1-yl)-ethanone]
survival of primary myeloma cells [1]: inhibits the survival of primary myeloma cells | Cells (×10^6/ml) cell counts (XG-12 myeloma cell line [2]; [7]): 0.35 ×10^6/ml | Cells (×10^6/ml) cell counts (XG-12 myeloma cell line [2]; [8]): 0.11 ×10^6/ml | induction of apoptosis of myeloma cell lines [3]: induced apoptosis of myeloma cell lines; also recorded: dose- and time-dependent | Annexin V (%) percentage of apoptotic cells (XG-12 myeloma cell line [4]; [7]): 39.5% | Annexin V (%) percentage of apoptotic cells (XG-12 myeloma cell line [4]; [8]): 79.8% | Annexin V (%) percentage of apoptotic cells (XG-3 myeloma cell line; XG-3, compound A at IC10 concentration): 29.2% | Annexin V (%) percentage of apoptotic cells (XG-3 myeloma cell line; XG-3, compound A at IC50 concentration): 30.7% | Annexin V (%) percentage of apoptotic cells (XG-3 myeloma cell line; XG-3, compound A at IC90 concentration): 48.2%
